In ChEMBL document CHEMBL3734705, “Synthesis and in vitro cytotoxicity of novel C-12 substituted-14-deoxy-andrographolide derivatives as potent anti-cancer agents” (2015):

Assays:
Type in all cases: functional
A549 = experiment: Cytotoxicity against human A549 cells after 48 hrs by SRB assay; details: A549, 48 h
[1] = Cytotoxicity against human RXF393 cells after 48 hrs by SRB assay; details: RXF 393, 48 h
SK-MEL-28 = experiment: Cytotoxicity against human SK-MEL-28 cells after 48 hrs by SRB assay; details: SK-MEL-28, 48 h
[2] = Cytotoxicity against human OVCAR8 cells after 48 hrs by SRB assay; details: OVCAR-8, 48 h
[3] = Cytotoxicity against human HOP62 cells after 48 hrs by SRB assay; details: HOP-62, 48 h
SR = experiment: Cytotoxicity against human SR cells after 48 hrs by SRB assay
[4] = Cytotoxicity against human MOLT4 cells after 48 hrs by SRB assay; details: MOLT-4, 48 h
CCRF-CEM = experiment: Cytotoxicity against human CCRF-CEM cells after 48 hrs by SRB assay
EKVX = experiment: Cytotoxicity against human EKVX cells after 48 hrs by SRB assay
[5] = Cytotoxicity against human TK10 cells after 48 hrs by SRB assay; details: TK-10, 48 h
[6] = Cytotoxicity against human Hs578T cells after 48 hrs by SRB assay; details: Hs-578T
[7] = Cytotoxicity against human OVCAR5 cells after 48 hrs by SRB assay; details: OVCAR-5, 48 h
[8] = Cytotoxicity against human IGROV1 cells after 48 hrs by SRB assay; details: IGROV-1, 48 h
[9] = Cytotoxicity against human OVCAR3 cells after 48 hrs by SRB assay; details: OVCAR-3, 48 h
[10] = Cytotoxicity against human HCT116 cells after 48 hrs by SRB assay; details: HCT-116, 48 h
[11] = Cytotoxicity against human BT549 cells after 48 hrs by SRB assay; details: BT-549, 48 h
NCI-H23 = experiment: Cytotoxicity against human NCI-H23 cells after 48 hrs by SRB assay; details: NCI-H23, 48 h
[12] = Cytotoxicity against human OVCAR4 cells after 48 hrs by SRB assay; details: OVCAR-4, 48 h
MDA-MB-231 = experiment: Cytotoxicity against human MDA-MB-231 cells after 48 hrs by SRB assay; details: MDA-MB-231, 48 h
[13] = Cytotoxicity against human HCT15 cells after 48 hrs by SRB assay; details: HCT-15, 48 h
[14] = Cytotoxicity against human Caki1 cells after 48 hrs by SRB assay; details: CAKI-1, 48 h
[15] = Cytotoxicity against human PC3 cells after 48 hrs by SRB assay; details: PC-3, 48 h
[16] = Cytotoxicity against human COLO205 cells after 48 hrs by SRB assay; details: COLO 205, 48 h
NCI-H522 = experiment: Cytotoxicity against human NCI-H522 cells after 48 hrs by SRB assay; details: NCI-H522, 48 h
KM12 = experiment: Cytotoxicity against human KM12 cells after 48 hrs by SRB assay; details: KM12, 48 h
[17] = Cytotoxicity against human HL-60(TB) cells after 48 hrs by SRB assay; details: HL-60, 48 h
[18] = Cytotoxicity against human UACC257 cells after 48 hrs by SRB assay; details: UACC-257, 48 h
SK-MEL-2 [19] = experiment: Cytotoxicity against human SK-MEL-2 cells assessed as growth level at 10 uM after 48 hrs by SRB assay
786-0 = experiment: Cytotoxicity against human 786-0 cells after 48 hrs by SRB assay; details: 786-0, 48 h
SK-MEL-2 [20] = experiment: Cytotoxicity against human SK-MEL-2 cells after 48 hrs by SRB assay; details: SK-MEL-2, 48 h
[21] = Cytotoxicity against human SKOV3 cells after 48 hrs by SRB assay; details: SK-OV-3, 48 h
NCI-H322M = experiment: Cytotoxicity against human NCI-H322M cells after 48 hrs by SRB assay
T47D = experiment: Cytotoxicity against human T47D cells after 48 hrs by SRB assay
MDA-MB-435 = experiment: Cytotoxicity against human MDA-MB-435 cells after 48 hrs by SRB assay; details: MDA-MB-435, 48 h
[22] = Cytotoxicity against human SW620 cells after 48 hrs by SRB assay; details: SW-620, 48 h
[23] = read-out: LC50 (the source's name)

C=C1CC[C@@H]2[C@](C)(COC(C)=O)[C@H](OC(C)=O)CC[C@@]2(C)[C@@H]1CC(Nc1ccc(S(=O)(=O)NC(C)=O)cc1)C1=CCOC1=O (mixture of isomers)
GI50 (A549): 8.41 µM
LC50 (A549): 40 µM
TGI (A549): 18.3 µM
GI50 [1]: 1.96 µM
LC50 (concentration causing 50% net cell kill) [1]: 18.8 µM
TGI [1]: 4.69 µM
GI50 (SK-MEL-28): 3.69 µM
LC50 (lethal concentration 50%) (SK-MEL-28): 34.2 µM
TGI (SK-MEL-28): 13.2 µM
GI50 [2]: 2.25 µM
LC50 [2]: 38.6 µM
TGI [2]: 8.42 µM
GI50 [3]: 10.8 µM
LC50 [3]: 41.1 µM
TGI [3]: 21.1 µM
GI50 (SR): 0.99 µM
TGI (SR): 18.1 µM
CC50 (SR; [23]): > 75 µM
GI50 [4]: 2.2 µM
LC50 [4]: > 75 µM
TGI [4]: 6.66 µM
GI50 (CCRF-CEM): 1.93 µM
TGI (CCRF-CEM): 6.26 µM
CC50 (CCRF-CEM; [23]): > 75 µM
GI50 (EKVX): 10.8 µM
LC50 (EKVX): 40.3 µM
TGI (EKVX): 20.9 µM
GI50 [5]: 8.02 µM
LC50 [5]: 35.6 µM
TGI [5]: 16.9 µM
GI50 [6]: 8.45 µM
LC50 (concentration killing 50% of cells) [6]: > 75 µM
TGI [6]: 38.8 µM
GI50 [7]: 4.82 µM
LC50 (concentration causing 50% net cell kill) [7]: 39.5 µM
TGI [7]: 15.4 µM
GI50 [8]: 5.31 µM
TGI [8]: 15.4 µM
CC50 [8, 23]: 37.1 µM
GI50 [9]: 1.49 µM
LC50 (concentration killing 50% of cells) [9]: 6.13 µM
TGI [9]: 3.02 µM
GI50 [10]: 1.67 µM
LC50 (concentration killing 50% of cells) [10]: 12.3 µM
TGI [10]: 3.66 µM
GI50 [11]: 2.32 µM
TGI [11]: 7.93 µM
CC50 [11, 23]: 25.1 µM
GI50 (NCI-H23): 5.52 µM
LC50 (NCI-H23): 46.4 µM
TGI (NCI-H23): 17.4 µM
GI50 [12]: 4.14 µM
TGI [12]: 13.7 µM
CC50 [12, 23]: 33.7 µM
GI50 (MDA-MB-231): 3.32 µM
LC50 (MDA-MB-231): 35.1 µM
TGI (MDA-MB-231): 11.6 µM
GI50 [13]: 1.53 µM
LC50 [13]: 38 µM
TGI [13]: 4.36 µM
GI50 [14]: 3.31 µM
LC50 [14]: 29 µM
TGI [14]: 11.2 µM
GI50 [15]: 6.56 µM
LC50 [15]: 40 µM
TGI [15]: 16.8 µM
GI50 [16]: 1.81 µM
LC50 [16]: 20 µM
TGI [16]: 4.82 µM
GI50 (NCI-H522): 1.44 µM
LC50 (NCI-H522): 24.1 µM
TGI (NCI-H522): 4.42 µM
GI50 (KM12): 5.11 µM
LC50 (KM12): 40.5 µM
TGI (KM12): 15.9 µM
GI50 [17]: 2.45 µM
TGI [17]: 12 µM
CC50 [17, 23]: > 75 µM
GI50 [18]: 6.83 µM
LC50 (concentration killing 50% of cells) [18]: 35.6 µM
TGI [18]: 16 µM
Activity (SK-MEL-2 [19]): -7.41%
GI50 (786-0): 2.44 µM
LC50 (786-0): 26.2 µM
TGI (786-0): 7.98 µM
GI50 (SK-MEL-2 [20]): 8.68 µM
LC50 (concentration causing 50% net cell kill) (SK-MEL-2 [20]): 42.1 µM
TGI (SK-MEL-2 [20]): 19.1 µM
GI50 [21]: 9.31 µM
TGI [21]: 18.7 µM
CC50 [21, 23]: 37.4 µM
GI50 (NCI-H322M): 10.3 µM
LC50 (NCI-H322M): 40.1 µM
TGI (NCI-H322M): 20.3 µM
GI50 (T47D): 2.46 µM
LC50 (concentration killing 50% of cells) (T47D): > 75 µM
TGI (T47D): 12 µM
GI50 (MDA-MB-435): 2.79 µM
LC50 (50% lethal concentration) (MDA-MB-435): 30.6 µM
TGI (MDA-MB-435): 10.6 µM
GI50 [22]: 1.61 µM
LC50 [22]: 9.63 µM
TGI [22]: 3.58 µM
